From paper PMC11233931, “Remodeling tumor‐associated macrophage for anti‐cancer effects by rational design of irreversible inhibition of mitogen‐activated protein kinase‐activated protein kinase 2” (MedComm, 2024)

Tests used:
Experiment in all cases: Eurofins kinase selectivity profile against 380 other human recombinant kinases (Table S2)
Format in all cases: biochemical
[1] = target: T1, 380 human recombinant protein kinases (Homo sapiens, UniProt Q96PY6); conditions: NEK1(h), read-out: Inhibition rate
T1 construct: purchased Eurofins (Celle Lévescault)
T1 sequence (Q96PY6 1-1258): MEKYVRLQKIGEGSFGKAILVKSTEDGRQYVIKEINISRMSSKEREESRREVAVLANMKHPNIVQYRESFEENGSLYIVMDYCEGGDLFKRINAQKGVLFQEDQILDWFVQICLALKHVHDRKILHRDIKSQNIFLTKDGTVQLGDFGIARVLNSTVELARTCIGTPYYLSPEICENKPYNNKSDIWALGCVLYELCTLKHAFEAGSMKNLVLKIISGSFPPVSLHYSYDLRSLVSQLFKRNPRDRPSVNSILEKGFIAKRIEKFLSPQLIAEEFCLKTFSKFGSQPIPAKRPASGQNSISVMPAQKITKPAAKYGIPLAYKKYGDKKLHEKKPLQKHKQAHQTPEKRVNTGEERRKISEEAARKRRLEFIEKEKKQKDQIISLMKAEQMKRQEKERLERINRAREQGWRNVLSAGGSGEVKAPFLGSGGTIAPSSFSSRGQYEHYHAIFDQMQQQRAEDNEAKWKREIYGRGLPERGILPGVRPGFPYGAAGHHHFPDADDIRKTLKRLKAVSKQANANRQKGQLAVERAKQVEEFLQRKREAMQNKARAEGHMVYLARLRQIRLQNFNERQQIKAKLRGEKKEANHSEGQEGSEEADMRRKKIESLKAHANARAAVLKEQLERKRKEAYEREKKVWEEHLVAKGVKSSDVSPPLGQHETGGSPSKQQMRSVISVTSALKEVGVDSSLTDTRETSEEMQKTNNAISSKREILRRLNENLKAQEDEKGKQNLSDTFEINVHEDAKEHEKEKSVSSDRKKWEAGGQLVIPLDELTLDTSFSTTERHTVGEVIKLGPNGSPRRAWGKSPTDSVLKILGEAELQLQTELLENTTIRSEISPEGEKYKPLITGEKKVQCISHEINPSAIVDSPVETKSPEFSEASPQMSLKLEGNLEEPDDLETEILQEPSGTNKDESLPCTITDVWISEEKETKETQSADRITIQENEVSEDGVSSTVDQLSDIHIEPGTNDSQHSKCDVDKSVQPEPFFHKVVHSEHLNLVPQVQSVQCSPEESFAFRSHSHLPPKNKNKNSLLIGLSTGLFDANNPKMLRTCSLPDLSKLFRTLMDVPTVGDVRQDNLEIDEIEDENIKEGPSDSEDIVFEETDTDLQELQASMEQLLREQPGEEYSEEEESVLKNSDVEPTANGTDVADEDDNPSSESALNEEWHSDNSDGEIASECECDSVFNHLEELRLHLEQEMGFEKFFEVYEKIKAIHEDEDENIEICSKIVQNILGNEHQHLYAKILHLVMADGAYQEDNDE
Method in brief: (§1)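 To gauge specificity for MK2, the compound is profiled externally at various concentrations on recombinant human kinases, 380 in total.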

[2] = target: T2, 380 human recombinant protein kinases (Homo sapiens, UniProt O75116); conditions: ROCK-II(h), read-out: Inhibition rate
T2 construct: purchased Eurofins (Celle Lévescault)
T2 sequence (O75116 whole entry): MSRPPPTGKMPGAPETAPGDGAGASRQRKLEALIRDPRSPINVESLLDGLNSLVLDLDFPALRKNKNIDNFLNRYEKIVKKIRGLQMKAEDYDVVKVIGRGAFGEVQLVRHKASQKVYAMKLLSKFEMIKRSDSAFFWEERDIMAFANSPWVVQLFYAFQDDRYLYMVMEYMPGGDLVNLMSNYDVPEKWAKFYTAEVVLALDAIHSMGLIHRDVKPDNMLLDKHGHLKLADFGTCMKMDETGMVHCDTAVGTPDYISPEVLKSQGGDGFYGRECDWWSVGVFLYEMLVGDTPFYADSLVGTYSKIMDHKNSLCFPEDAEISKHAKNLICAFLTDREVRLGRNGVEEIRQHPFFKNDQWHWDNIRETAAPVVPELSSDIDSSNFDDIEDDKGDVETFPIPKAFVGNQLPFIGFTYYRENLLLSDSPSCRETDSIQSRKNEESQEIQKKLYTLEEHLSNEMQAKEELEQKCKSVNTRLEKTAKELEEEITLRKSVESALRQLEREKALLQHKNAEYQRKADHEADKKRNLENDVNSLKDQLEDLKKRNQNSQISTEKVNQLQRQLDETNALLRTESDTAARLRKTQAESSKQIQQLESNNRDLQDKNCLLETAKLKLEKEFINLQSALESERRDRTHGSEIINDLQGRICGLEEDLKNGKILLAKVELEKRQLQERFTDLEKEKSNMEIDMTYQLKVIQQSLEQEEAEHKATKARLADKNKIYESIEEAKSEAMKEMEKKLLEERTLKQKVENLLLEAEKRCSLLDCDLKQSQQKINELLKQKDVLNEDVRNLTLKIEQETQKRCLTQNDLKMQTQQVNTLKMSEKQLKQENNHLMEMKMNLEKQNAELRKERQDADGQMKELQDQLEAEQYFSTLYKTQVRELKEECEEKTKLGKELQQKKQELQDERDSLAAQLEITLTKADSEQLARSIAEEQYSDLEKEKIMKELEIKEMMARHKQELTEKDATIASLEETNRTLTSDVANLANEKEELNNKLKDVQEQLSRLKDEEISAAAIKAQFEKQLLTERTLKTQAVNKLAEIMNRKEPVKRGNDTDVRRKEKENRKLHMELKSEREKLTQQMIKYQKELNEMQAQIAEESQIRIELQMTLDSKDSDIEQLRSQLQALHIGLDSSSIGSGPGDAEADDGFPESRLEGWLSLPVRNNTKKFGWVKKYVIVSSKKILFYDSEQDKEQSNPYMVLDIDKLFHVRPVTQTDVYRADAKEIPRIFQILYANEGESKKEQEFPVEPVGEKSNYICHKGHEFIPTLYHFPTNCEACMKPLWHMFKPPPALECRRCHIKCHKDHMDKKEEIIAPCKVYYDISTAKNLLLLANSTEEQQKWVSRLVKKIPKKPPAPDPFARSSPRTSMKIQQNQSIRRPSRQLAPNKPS
Method in brief: as §1

[3] = target: T3, 380 human recombinant protein kinases (Homo sapiens, UniProt Q9UQB9); conditions: Aurora-C(h), read-out: Inhibition rate
T3 construct: purchased Eurofins (Celle Lévescault)
T3 sequence (Q9UQB9 1-309): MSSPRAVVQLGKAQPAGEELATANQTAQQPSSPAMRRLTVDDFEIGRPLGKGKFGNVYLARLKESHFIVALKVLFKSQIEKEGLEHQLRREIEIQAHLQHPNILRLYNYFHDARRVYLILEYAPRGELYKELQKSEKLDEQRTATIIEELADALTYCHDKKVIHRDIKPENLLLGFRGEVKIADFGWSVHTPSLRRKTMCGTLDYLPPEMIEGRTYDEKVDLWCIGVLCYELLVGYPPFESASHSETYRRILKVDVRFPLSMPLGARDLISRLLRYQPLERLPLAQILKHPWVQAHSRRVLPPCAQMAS
Method in brief: as §1

[4] = target: T4, 380 human recombinant protein kinases (Homo sapiens, UniProt Q9HBH9); conditions: Mnk2(h), read-out: Inhibition rate
T4 construct: purchased Eurofins (Celle Lévescault)
T4 sequence (Q9HBH9 whole entry): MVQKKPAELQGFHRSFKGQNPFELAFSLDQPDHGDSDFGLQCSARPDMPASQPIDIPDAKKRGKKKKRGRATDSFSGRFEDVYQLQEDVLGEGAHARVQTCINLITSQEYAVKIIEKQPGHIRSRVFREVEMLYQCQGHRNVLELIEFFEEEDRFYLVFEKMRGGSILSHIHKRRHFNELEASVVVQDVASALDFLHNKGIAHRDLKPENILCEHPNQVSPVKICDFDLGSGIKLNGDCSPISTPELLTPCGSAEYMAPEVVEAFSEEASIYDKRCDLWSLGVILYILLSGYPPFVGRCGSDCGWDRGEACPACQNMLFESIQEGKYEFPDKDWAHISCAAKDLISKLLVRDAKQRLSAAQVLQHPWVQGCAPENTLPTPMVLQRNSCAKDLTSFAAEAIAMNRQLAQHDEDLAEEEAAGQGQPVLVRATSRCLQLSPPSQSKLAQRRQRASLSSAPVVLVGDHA
Method in brief: as §1

[5] = target: T5, 380 human recombinant protein kinases (Homo sapiens, UniProt P08069); conditions: IGF-1R(h), read-out: Inhibition rate
T5 construct: purchased Eurofins (Celle Lévescault)
Method in brief: as §1

[6] = target: T6, 380 human recombinant protein kinases (Homo sapiens, UniProt Q6IQ55); conditions: TTBK2(h), read-out: Inhibition rate (%)
T6 construct: purchased Eurofins (Celle Lévescault)
T6 sequence (Q6IQ55 whole entry): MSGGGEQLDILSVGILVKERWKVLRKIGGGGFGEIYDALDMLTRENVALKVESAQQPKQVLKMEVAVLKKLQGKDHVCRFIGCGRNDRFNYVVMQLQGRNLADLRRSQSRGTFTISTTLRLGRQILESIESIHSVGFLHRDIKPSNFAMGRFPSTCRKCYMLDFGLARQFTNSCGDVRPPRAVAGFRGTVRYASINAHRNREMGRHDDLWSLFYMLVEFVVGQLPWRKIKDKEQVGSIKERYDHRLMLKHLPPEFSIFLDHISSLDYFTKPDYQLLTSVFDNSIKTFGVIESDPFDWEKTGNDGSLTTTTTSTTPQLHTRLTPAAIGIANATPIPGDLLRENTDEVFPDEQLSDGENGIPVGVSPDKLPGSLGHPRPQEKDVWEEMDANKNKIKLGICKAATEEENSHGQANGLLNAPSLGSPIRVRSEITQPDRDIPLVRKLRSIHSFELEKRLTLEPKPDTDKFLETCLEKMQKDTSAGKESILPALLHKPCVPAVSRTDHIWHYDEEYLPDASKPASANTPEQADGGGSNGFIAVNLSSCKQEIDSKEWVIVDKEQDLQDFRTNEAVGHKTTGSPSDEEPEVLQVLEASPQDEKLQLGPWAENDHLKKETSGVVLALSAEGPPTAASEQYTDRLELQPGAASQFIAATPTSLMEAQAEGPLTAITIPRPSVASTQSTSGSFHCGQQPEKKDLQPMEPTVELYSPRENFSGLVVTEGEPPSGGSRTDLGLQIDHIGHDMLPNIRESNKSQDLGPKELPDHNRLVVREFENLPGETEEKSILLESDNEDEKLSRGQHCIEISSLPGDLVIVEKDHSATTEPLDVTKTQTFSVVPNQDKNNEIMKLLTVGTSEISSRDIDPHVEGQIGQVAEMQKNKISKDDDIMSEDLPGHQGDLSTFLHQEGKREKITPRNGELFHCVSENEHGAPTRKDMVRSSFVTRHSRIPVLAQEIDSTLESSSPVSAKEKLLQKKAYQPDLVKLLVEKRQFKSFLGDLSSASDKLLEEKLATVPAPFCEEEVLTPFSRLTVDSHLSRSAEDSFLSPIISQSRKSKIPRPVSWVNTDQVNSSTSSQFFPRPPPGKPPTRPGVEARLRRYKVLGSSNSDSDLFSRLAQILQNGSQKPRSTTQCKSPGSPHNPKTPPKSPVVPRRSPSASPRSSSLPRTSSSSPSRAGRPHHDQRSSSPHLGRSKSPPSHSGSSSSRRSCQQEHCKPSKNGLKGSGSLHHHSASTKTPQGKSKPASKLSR
Method in brief: as §1

[7] = target: T7, 380 human recombinant protein kinases (Homo sapiens, UniProt P42336, H1047R); conditions: PI3 Kinase (p110α(H1047R)/p85α)(h), read-out: Inhibition rate (%)
T7 construct: purchased Eurofins (Celle Lévescault)
T7 sequence (P42336 whole entry H1047R): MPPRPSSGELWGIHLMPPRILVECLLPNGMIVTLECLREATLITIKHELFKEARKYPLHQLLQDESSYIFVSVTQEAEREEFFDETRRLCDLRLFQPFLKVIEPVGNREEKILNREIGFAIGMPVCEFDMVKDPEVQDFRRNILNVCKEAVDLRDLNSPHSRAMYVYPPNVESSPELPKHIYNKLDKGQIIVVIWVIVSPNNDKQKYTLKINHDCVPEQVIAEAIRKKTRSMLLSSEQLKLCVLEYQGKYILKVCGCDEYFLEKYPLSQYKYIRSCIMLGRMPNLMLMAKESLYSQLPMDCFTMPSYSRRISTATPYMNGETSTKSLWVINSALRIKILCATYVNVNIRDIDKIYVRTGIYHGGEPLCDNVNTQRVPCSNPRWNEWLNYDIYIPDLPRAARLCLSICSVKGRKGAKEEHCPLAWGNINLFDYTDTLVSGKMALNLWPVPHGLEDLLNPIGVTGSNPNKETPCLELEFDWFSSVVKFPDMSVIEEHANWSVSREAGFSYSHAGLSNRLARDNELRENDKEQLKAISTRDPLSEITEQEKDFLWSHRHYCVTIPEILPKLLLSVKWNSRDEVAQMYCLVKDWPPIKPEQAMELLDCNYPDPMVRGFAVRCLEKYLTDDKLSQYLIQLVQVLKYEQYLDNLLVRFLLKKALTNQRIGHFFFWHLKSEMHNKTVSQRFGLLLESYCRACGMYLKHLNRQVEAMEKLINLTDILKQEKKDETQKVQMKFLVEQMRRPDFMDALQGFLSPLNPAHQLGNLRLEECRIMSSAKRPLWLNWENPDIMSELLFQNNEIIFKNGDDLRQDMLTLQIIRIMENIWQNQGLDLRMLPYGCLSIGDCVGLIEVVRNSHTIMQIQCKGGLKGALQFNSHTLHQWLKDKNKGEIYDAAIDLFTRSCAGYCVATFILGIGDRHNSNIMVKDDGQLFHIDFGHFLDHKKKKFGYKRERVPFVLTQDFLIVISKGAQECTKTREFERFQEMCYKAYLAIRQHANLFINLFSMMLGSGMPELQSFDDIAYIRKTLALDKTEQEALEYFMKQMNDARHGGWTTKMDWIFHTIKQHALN
Method in brief: as §1

[8] = target: T8, 380 human recombinant protein kinases (Homo sapiens, UniProt O75914); conditions: PAK3(h), read-out: Inhibition rate
T8 construct: purchased Eurofins (Celle Lévescault)
T8 sequence (O75914 whole entry): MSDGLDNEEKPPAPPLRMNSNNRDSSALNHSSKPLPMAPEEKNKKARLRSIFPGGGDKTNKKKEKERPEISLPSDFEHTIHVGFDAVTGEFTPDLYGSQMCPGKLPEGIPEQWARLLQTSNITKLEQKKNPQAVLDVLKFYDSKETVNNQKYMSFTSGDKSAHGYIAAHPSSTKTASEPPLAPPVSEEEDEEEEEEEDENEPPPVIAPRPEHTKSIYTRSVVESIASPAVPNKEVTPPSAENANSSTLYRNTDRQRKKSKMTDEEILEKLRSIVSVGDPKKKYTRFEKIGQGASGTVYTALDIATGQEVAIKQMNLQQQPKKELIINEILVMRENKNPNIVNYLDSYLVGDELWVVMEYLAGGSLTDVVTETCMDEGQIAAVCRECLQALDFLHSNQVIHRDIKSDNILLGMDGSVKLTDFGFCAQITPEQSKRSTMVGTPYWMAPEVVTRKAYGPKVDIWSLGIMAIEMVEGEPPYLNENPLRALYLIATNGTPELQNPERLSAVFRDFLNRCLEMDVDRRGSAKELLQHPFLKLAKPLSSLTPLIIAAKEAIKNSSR
Method in brief: as §1

C=CC(=O)Nc1cc(-c2cc(-c3cc4c([nH]3)CCNC4=O)ccn2)ccc1OC(F)(F)F [compound 11]
inhibition at 0.01 µM ([1]; 10 nM): -3% | inhibition at 0.1 µM ([1]; 100 nM): -1% | inhibition at 1 µM ([1]; 1000 nM): 11% | inhibition at 0.01 µM ([2]; 10 nM): -3% | inhibition at 0.1 µM ([2]; 100 nM): 0% | inhibition at 1 µM ([2]; 1000 nM): -6% | inhibition at 0.01 µM ([3]; 10 nM): 2% | inhibition at 0.1 µM ([3]; 100 nM): -5% | inhibition at 1 µM ([3]; 1000 nM): 6% | inhibition at 0.01 µM ([4]; 10 nM): 4% | inhibition at 0.1 µM ([4]; 100 nM): 13% | inhibition at 1 µM ([4]; 1000 nM): 61% | inhibition at 0.01 µM ([5]; 10 nM): -3% | inhibition at 0.1 µM ([5]; 100 nM): -2% | inhibition at 1 µM ([5]; 1000 nM): -14% | inhibition at 0.01 µM ([6]; 10 nM): -1% | inhibition at 0.1 µM ([6]; 100 nM): -3% | inhibition at 1 µM ([6]; 1000 nM): 3% | inhibition at 0.01 µM ([7]; 10 nM): 0% | inhibition at 0.1 µM ([7]; 100 nM): 0% | inhibition at 1 µM ([7]; 1000 nM): 2% | inhibition at 0.01 µM ([8]; 10 nM): -4% | inhibition at 0.1 µM ([8]; 100 nM): 0% | inhibition at 1 µM ([8]; 1000 nM): -3%
